Results published in PubChem BioAssay (NCI).
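Growth conditions: 96-well plates. Treatment: test compound, 48 hours, 5 concentrations. Analysis: linear interpolation between bracketing concentrations; unreached endpoints set to highest concentration. GI50: concentration for 50% inhibition of growth. TGI marks complete inhibition of growth.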

Tests used:
Test in all cases: inhibition of tumour cell growth, NCI panel, 48 h
[1] = system: EKVX NSCLC
[2] = system: MCF7 breast
[3] = system: MALME-3M melanoma
[4] = system: A498 renal
[5] = system: HOP-62 NSCLC
[6] = system: HCT-116 colon
[7] = system: HCT-15 colon
[8] = system: NCI-H23 lung
[9] = system: ACHN renal
[10] = system: A549 NSCLC
[11] = system: SK-MEL-5 melanoma
[12] = system: NCI/ADR-RES ovarian
[13] = system: KM12 colon
[14] = system: SK-MEL-2 melanoma
[15] = system: OVCAR-3 ovarian
[16] = system: TK-10 renal
[17] = system: MOLT-4 leukemia
[18] = system: UO-31 renal
[19] = system: OVCAR-8 ovarian
[20] = system: SNB-19 CNS
[21] = system: OVCAR-4 ovarian
[22] = system: SN12C renal
[23] = system: RXF 393 renal
[24] = system: COLO 205 colon
[25] = system: PC-3 prostate
[26] = system: NCI-H226 lung
[27] = system: CCRF-CEM leukemia
[28] = system: SW-620 colon
[29] = system: 786-0 renal
[30] = system: OVCAR-5 ovarian
[31] = system: SK-OV-3 ovarian
[32] = system: M14 melanoma
[33] = system: T-47D breast
[34] = system: HOP-92 NSCLC
[35] = system: MDA-MB-231 breast
[36] = system: K-562 leukemia
[37] = system: DU-145 prostate
[38] = system: HS 578T breast
[39] = system: NCI-H460 lung
[40] = system: IGROV1 ovarian
[41] = system: CAKI-1 renal
[42] = system: SF-268 CNS
[43] = system: RPMI-8226 leukemia
[44] = system: U251 CNS
[45] = system: SF-295 CNS
[46] = system: SR leukemia
[47] = system: HT29 colon
[48] = system: HCC-2998 colon
[49] = system: HL-60(TB) leukemia
[50] = system: SNB-75 CNS
[51] = system: LOX IMVI melanoma
[52] = system: BT-549 breast
[53] = system: MDA-MB-435
[54] = system: SF-539 CNS
[55] = system: NCI-H522 lung

CO[C@H](C(=O)[C@@H](O)[C@@H](C)O)[C@@H]1Cc2cc3cc(O[C@H]4C[C@@H](O[C@H]5C[C@@H](O)[C@H](O)C(C)O5)[C@H](O)C(C)(O)O4)cc(O)c3c(O)c2C(=O)[C@H]1O[C@H]1C[C@@H](O[C@H]2C[C@@H](O[C@H]3C[C@@H](OC)[C@H](O)C(C)O3)[C@@H](O)C(C)O2)[C@H](O)C(C)O1 (stereo not given in full)
GI50 [1]: 1500 nM
TGI [1]: > 16.8 µM
GI50 [2]: 185 nM
TGI [2]: > 16.8 µM
GI50 [3]: 212 nM
TGI [3]: 14 µM
GI50 [4]: 369 nM
TGI [4]: 1290 nM
GI50 [5]: 521 nM
TGI [5]: > 16.8 µM
GI50 [6]: 542 nM
TGI [6]: > 16.8 µM
GI50 [7]: > 16.8 µM
TGI [7]: > 16.8 µM
GI50 [8]: 831 nM
TGI [8]: > 16.8 µM
GI50 [9]: 3.68 µM
TGI [9]: > 16.8 µM
GI50 [10]: 828 nM
TGI [10]: > 16.8 µM
GI50 [11]: 509 nM
TGI [11]: 2970 nM
GI50 [12]: > 16.8 µM
TGI [12]: > 16.8 µM
GI50 [13]: 786 nM
TGI [13]: > 16.8 µM
GI50 [14]: 704 nM
TGI [14]: 5.18 µM
GI50 [15]: 956 nM
TGI [15]: > 16.8 µM
GI50 [16]: 2800 nM
TGI [16]: > 16.8 µM
GI50 [17]: 1200 nM
TGI [17]: > 16.8 µM
GI50 [18]: 4.06 µM
TGI [18]: > 16.8 µM
GI50 [19]: 1550 nM
TGI [19]: > 16.8 µM
GI50 [20]: 761 nM
TGI [20]: > 16.8 µM
GI50 [21]: 1350 nM
TGI [21]: > 16.8 µM
GI50 [22]: 868 nM
TGI [22]: > 16.8 µM
GI50 [23]: 1270 nM
TGI [23]: 7.94 µM
GI50 [24]: 720 nM
TGI [24]: 4.94 µM
GI50 [25]: 1420 nM
TGI [25]: > 16.8 µM
GI50 [26]: 796 nM
TGI [26]: 5.34 µM
GI50 [27]: 5 µM
TGI [27]: > 16.8 µM
GI50 [28]: 1310 nM
TGI [28]: > 16.8 µM
GI50 [29]: 1510 nM
TGI [29]: > 16.8 µM
GI50 [30]: 2950 nM
TGI [30]: > 16.8 µM
GI50 [31]: 671 nM
TGI [31]: > 16.8 µM
GI50 [32]: 2560 nM
TGI [32]: > 16.8 µM
GI50 [33]: 447 nM
TGI [33]: > 16.8 µM
GI50 [34]: 528 nM
TGI [34]: 8.66 µM
GI50 [35]: 1890 nM
TGI [35]: > 16.8 µM
GI50 [36]: 951 nM
TGI [36]: > 16.8 µM
GI50 [37]: 976 nM
TGI [37]: > 16.8 µM
GI50 [38]: 708 nM
TGI [38]: > 16.8 µM
GI50 [39]: 469 nM
TGI [39]: > 16.8 µM
GI50 [40]: 809 nM
TGI [40]: > 16.8 µM
GI50 [41]: > 16.8 µM
TGI [41]: > 16.8 µM
GI50 [42]: 726 nM
TGI [42]: > 16.8 µM
GI50 [43]: 833 nM
TGI [43]: > 16.8 µM
GI50 [44]: 387 nM
TGI [44]: > 16.8 µM
GI50 [45]: 666 nM
TGI [45]: > 16.8 µM
GI50 [46]: 250 nM
TGI [46]: > 16.8 µM
GI50 [47]: 1160 nM
TGI [47]: > 16.8 µM
GI50 [48]: 1920 nM
TGI [48]: > 16.8 µM
GI50 [49]: 11.2 µM
TGI [49]: > 16.8 µM
GI50 [50]: 63 nM
TGI [50]: 6.84 µM
GI50 [51]: 384 nM
TGI [51]: > 16.8 µM
GI50 [52]: 2040 nM
TGI [52]: > 16.8 µM
GI50 [53]: 895 nM
TGI [53]: > 16.8 µM
GI50 [54]: 658 nM
TGI [54]: 12.2 µM
GI50 [55]: 354 nM
TGI [55]: 14.8 µM
